The values that follow come from patent US9120756B2, “Substituted phenylureas and phenylamides as vanilloid receptor ligands” (Gruenenthal GmbH, priority 2009, dated 2015).

Holding throughout (assay type): cell-based
The target of experiment [1] is T1, hVR1 (Homo sapiens (Human), UniProt Q8NER1). Description: FLIPR assay hVR1, after pH stimulus. On the set-up: key to IC50 (human being) hVR1 pH: result in words (NE / AG): AG=agonist; pAG=partial agonist; NE=no effect. The settings on record: for inhibition at 10 µM: read-out: IC50 (human being) hVR1 pH: inhibition (as a percentage) @ 10 μM, inhibition determined at 10 μM. As for the experimental part:
In this assay, the influx of Ca^2+ through the channel is quantified with the aid of a Ca^2+-sensitive dye (type Fluo-4, Molecular Probes Europe BV, Leiden, the Netherlands) in a fluorescent imaging plate reader (FLIPR, Molecular Devices, Sunnyvale, USA). Chinese hamster ovary cells (CHO K1 cells, European Collection of Cell Cultures (ECACC) United Kingdom) are stably transfected with the VR1 gene. For functional testing, these cells are plated out on poly-D-lysine-coated black 96-well plates having a clear base (BD Biosciences, Heidelberg, Germany) at a density of 25,000 cells/well. […] Subsequently, the plates are washed three times with HBSS buffer and after further incubation for 15 minutes at RT used for Ca^2+ measurement in a FLIPR assay. […] Quantification is carried out by measuring the highest fluorescence intensity (FC, fluorescence counts) over time. The FLIPR protocol consists of 2 substance additions. […] Desensitising agonists and antagonists led to suppression of the Ca^2+ influx. […] Ki values for the test substances were obtained by conversion by means of the Cheng-Prusoff equation (Cheng, Prusoff; Biochem. Pharmacol. 22, 3099-3108, 1973).

For experiment [2], the target named is T1, hVR1. Description: FLIPR Ca2+ influx assay on CHO K1 cells transfected with the VR1 gene, capsaicin stimulus (method II). On the set-up: key to Ki (human being) Cap: result in words (NE / AG): AG=agonist; pAG=partial agonist; NE=no effect. The conditions noted are these: for Ki: capsaicin (Cap), read-out: Ki (human being) [nM] Cap; for inhibition at 5 µM: CHO-K1, read-out: Ki (human being) Cap column: inhibition (as a percentage) @ 5 μM, capsaicin, inhibition determined at 5 μM. The source says: In the process, the Ca^2+ influx is quantified in the FLIPR assay with the aid of a Ca^2+-sensitive dye (type Fluo-4, Molecular Probes Europe BV, Leiden, the Netherlands) in a fluorescent imaging plate reader (FLIPR, Molecular Devices, Sunnyvale, USA), as described hereinafter.
The agonistic or antagonistic effect of the substances to be tested on the vanilloid receptor 1 (VR1) can also be determined using the following assay. In this assay, the influx of Ca^2+ through the channel is quantified with the aid of a Ca^2+-sensitive dye (type Fluo-4, Molecular Probes Europe BV, Leiden, the Netherlands) in a fluorescent imaging plate reader (FLIPR, Molecular Devices, Sunnyvale, USA).
Chinese hamster ovary cells (CHO K1 cells, European Collection of Cell Cultures (ECACC) United Kingdom) are stably transfected with the VR1 gene. For functional testing, these cells are plated out on poly-D-lysine-coated black 96-well plates having a clear base (BD Biosciences, Heidelberg, Germany) at a density of 25,000 cells/well. The cells are incubated overnight at 37° C. and 5% CO2 in a culture medium (Ham's F12 nutrient mixture, 10% by volume of FCS (foetal calf serum), 18 μg/ml of L-proline). The next day the cells are incubated with Fluo-4 (Fluo-4 2 μM, 0.01% by volume of Pluronic F127, Molecular Probes in HBSS (Hank's buffered saline solution), Gibco Invitrogen GmbH, Karlsruhe, Germany) for 30 minutes at 37° C. Subsequently, the plates are washed three times with HBSS buffer and after further incubation for 15 minutes at RT used for Ca^2+ measurement in a FLIPR assay. The Ca^2+-dependent fluorescence is measured before and after the addition of the substances to be tested (λex wavelength=488 nm, λem=540 nm). Quantification is carried out by measuring the highest fluorescence intensity (FC, fluorescence counts) over time.
The FLIPR protocol consists of 2 substance additions. First the compounds to be tested (10 μM) are pipetted onto the cells and the Ca^2+ influx is compared with the control (capsaicin 10 μM) (% activation based on the Ca^2+ signal after the addition of 10 μM of capsaicin). After 5 minutes' incubation, 100 nM of capsaicin are applied and the Ca^2+ influx is also determined.
Desensitising agonists and antagonists led to suppression of the Ca^2+ influx.
Starting from the percentage displacement caused by different concentrations of the compounds to be tested of general formula I, IC50 inhibitory concentrations which cause a 50-percent displacement of capsaicin were calculated. Ki values for the test substances were obtained by conversion by means of the Cheng-Prusoff equation (Cheng, Prusoff; Biochem. Pharmacol. 22, 3099-3108, 1973).

For experiment [3], the target named is rat-species vanilloid receptor 1 (VR1/TRPV1) (Rattus norvegicus (Rat), UniProt O35433). Nature of the experiment: FLIPR Ca2+ influx assay on rat dorsal root ganglia cells, capsaicin stimulus (method I). The conditions noted are these: for Ki: capsaicin (Cap); for inhibition at 5 µM: read-out: Ki (rat) Cap: inhibition (as a percentage) @ 5 μM, capsaicin, inhibition determined at 5 μM. On the procedure:
The agonistic or antagonistic effect of the substances to be tested on the rat-species vanilloid receptor 1 (VR1/TRPV1) can be determined using the following assay. In this assay, the influx of Ca^2+ through the receptor channel is quantified with the aid of a Ca^2+-sensitive dye (type Fluo-4, Molecular Probes Europe BV, Leiden, the Netherlands) in a fluorescent imaging plate reader (FLIPR, Molecular Devices, Sunnyvale, USA).
Complete medium: 50 ml HAMS F12 nutrient mixture (Gibco Invitrogen GmbH, Karlsruhe, Germany) with
10% by volume of FCS (foetal calf serum, Gibco Invitrogen GmbH, Karlsruhe, Germany, heat-inactivated);
2 mM L-glutamine (Sigma, Munich, Germany);
1% by weight of AA solution (antibiotic/antimyotic solution, PAA, Pasching, Austria) and 25 ng/ml NGF medium (2.5 S, Gibco Invitrogen GmbH, Karlsruhe, Germany)
Cell culture plate: Poly-D-lysine-coated, black 96-well plates having a clear base (96-well black/clear plate, BD Biosciences, Heidelberg, Germany) are additionally coated with laminin (Gibco Invitrogen GmbH, Karlsruhe, Germany), the laminin being diluted with PBS (Ca—Mg-free PBS, Gibco Invitrogen GmbH, Karlsruhe, Germany) to a concentration of 100 μg/ml. Aliquots having a laminin concentration of 100 μg/ml are removed and stored at −20° C. The aliquots are diluted with PBS in a ratio of 1:10 to 10 μg/ml of laminin and respectively 50 μL of the solution are pipetted into a recess in the cell culture plate. The cell culture plates are incubated for at least two hours at 37° C., the excess solution is removed by suction and the recesses are each washed twice with PBS. The coated cell culture plates are stored with excess PBS which is not removed until just before the feeding of the cells.
The vertebral column is removed from decapitated rats and placed immediately into cold HBSS buffer (Hank's buffered saline solution, Gibco Invitrogen GmbH, Karlsruhe, Germany), i.e. buffer located in an ice bath, mixed with 1% by volume (percent by volume) of an AA solution (antibiotic/antimyotic solution, PAA, Pasching, Austria). The vertebral column is cut longitudinally and removed together with fasciae from the vertebral canal. Subsequently, the dorsal root ganglia (DRG) are removed and again stored in cold HBSS buffer mixed with 1% by volume of an AA solution. The DRG, from which all blood remnants and spinal nerves have been removed, are transferred in each case to 500 μL of cold type 2 collagenase (PAA, Pasching, Austria) and incubated for 35 minutes at 37° C. After the addition of 2.5% by volume of trypsin (PAA, Pasching, Austria), incubation is continued for 10 minutes at 37° C. After complete incubation, the enzyme solution is carefully pipetted off and 500 μL of complete medium are added to each of the remaining DRG. […] The contents of each Falcon tube are respectively filtered through a 70 μm Falcon filter element and centrifuged for 10 minutes at 1,200 rpm and RT. The resulting pellet is respectively taken up in 250 μL of complete medium and the cell count is determined.
The number of cells in the suspension is set to 3×10^5 per ml and 150 μL of this suspension are in each case introduced into a recess in the cell culture plates coated as described hereinbefore. […] Subsequently, the cells are loaded with 2 μM of Fluo-4 and 0.01% by volume of Pluronic F127 (Molecular Probes Europe BV, Leiden, the Netherlands) in HBSS buffer (Hank's buffered saline solution, Gibco Invitrogen GmbH, Karlsruhe, Germany) for 30 min at 37° C., washed 3 times with HBSS buffer and after further incubation for 15 minutes at RT used for Ca^2+ measurement in a FLIPR assay. The Ca^2+-dependent fluorescence is in this case measured before and after the addition of substances (λex=488 nm, λem=540 nm). Quantification is carried out by measuring the highest fluorescence intensity (FC, fluorescence counts) over time.
The FLIPR protocol consists of 2 substance additions.

Sequence of rat-species vanilloid receptor 1 (VR1/TRPV1) (O35433 whole entry): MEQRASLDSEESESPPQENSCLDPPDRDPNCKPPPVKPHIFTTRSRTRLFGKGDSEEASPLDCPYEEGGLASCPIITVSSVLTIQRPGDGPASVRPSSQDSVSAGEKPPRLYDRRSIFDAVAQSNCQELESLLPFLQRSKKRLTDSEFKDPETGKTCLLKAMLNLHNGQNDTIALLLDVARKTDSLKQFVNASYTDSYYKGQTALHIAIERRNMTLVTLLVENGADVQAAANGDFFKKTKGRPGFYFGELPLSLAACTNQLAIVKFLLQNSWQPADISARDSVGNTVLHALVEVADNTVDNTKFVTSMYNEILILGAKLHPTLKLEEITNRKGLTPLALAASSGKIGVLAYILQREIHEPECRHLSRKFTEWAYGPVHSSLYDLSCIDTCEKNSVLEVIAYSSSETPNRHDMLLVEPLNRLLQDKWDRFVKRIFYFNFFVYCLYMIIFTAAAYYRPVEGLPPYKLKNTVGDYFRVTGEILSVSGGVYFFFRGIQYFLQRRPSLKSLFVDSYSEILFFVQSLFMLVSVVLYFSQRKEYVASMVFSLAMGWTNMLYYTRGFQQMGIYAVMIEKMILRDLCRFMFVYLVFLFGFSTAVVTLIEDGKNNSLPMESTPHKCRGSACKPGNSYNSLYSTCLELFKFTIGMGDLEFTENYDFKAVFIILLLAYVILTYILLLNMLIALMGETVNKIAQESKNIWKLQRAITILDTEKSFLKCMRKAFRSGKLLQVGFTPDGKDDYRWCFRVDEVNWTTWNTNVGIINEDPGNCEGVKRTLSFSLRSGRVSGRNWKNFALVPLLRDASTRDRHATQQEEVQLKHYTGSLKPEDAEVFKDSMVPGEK
T1 sequence (Q8NER1 whole entry): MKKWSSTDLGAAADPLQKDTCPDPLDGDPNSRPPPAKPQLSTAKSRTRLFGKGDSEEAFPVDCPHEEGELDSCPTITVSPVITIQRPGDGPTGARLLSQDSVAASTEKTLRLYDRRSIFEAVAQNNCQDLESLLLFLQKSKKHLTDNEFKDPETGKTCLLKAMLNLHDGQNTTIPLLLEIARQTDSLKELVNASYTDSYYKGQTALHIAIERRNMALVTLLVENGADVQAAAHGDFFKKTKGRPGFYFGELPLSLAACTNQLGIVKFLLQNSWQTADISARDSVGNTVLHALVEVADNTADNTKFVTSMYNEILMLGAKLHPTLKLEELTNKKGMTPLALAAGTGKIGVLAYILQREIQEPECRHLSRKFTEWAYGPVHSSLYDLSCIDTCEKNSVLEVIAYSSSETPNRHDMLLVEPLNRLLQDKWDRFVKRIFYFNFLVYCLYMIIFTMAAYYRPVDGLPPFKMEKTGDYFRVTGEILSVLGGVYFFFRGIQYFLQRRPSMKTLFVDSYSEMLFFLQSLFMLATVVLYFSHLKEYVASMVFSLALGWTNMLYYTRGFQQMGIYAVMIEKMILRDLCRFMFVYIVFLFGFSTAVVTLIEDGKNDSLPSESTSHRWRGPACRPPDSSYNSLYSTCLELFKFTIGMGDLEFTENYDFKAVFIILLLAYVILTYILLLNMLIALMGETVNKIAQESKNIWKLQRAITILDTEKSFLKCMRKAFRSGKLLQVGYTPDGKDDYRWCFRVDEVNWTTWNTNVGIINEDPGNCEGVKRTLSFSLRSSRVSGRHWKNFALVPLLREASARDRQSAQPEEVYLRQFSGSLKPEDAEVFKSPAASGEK

The term inhibition denotes the change of the read-out against control, counted positive when it falls. Usually Ki stands for a dissociation constant, usually derived from enzyme kinetics or from competition with a known ligand. On to `CCCCCCn1nc(C(C)(C)C)cc1CNC(=O)[C@@H](C)c1ccc(NS(C)(=O)=O)c(F)c1` [Example 6, (S)-N-((3-tert-butyl-1-hexyl-1H-pyrazol-5-yl)methyl)-2-(3-fluoro-4-(methylsulphonamido)phenyl)propanamide], for which the inhibition at 10 µM on hVR1 [1] is 13%. Further, the Ki at hVR1 [2] was 27.7 nM; in experiment [3] it was 14.5 nM.

As for `CC(C(=O)NCc1cc(C(C)(C)C)nn1-c1ccc(Cl)cc1)c1ccc(NS(C)(=O)=O)c(F)c1` (centres unmarked) [Example 14, N-((3-tert-butyl-1-(4-chlorophenyl)-1H-pyrazol-5-yl)methyl)-2-(3-fluoro-4-(methylsulphonamido)phenyl)propanamide], the inhibition at 10 µM on hVR1 [1] is 25%. The figures for the Ki (on hVR1 [2]; in experiment [3]) were 3.7 nM and 7.2 nM, respectively.

`COc1cc(C(C)C(=O)NCc2cc(C(C)(C)C)nn2-c2cccc(Cl)c2)ccc1NS(C)(=O)=O` (centres unmarked) [Example 27, N-((3-tert-butyl-1-(3-chlorophenyl)-1H-pyrazol-5-yl)methyl)-2-(3-methoxy-4-(methylsulphonamido)phenyl)propanamide]: at hVR1 [1], the “IC50 (human being) hVR1 pH: result in words (NE / AG)” value (“IC50 … (NE / AG)” below) is reported as “NE”. Further, the Ki at hVR1 [2] was determined as 2.2 nM; in experiment [3], 1.2 nM.

With `CC(C(=O)NCc1cc(C(C)(C)C)nn1-c1ccc(C(C)(C)C)cc1)c1ccc(NS(C)(=O)=O)c(F)c1` (centres unmarked) [Example 13, N-((3-tert-butyl-1-(4-tert-butylphenyl)-1H-pyrazol-5-yl)methyl)-2-(3-fluoro-4-(methylsulphonamido)phenyl)propanamide], the Ki amounted to 75.2 nM on hVR1 [2] and 25.9 nM in experiment [3].

As for `C[C@@H](C(=O)NCc1cc(C(F)(F)F)nn1-c1ccc(Cl)cc1)c1ccc(NS(C)(=O)=O)c(F)c1` [Example 22, (R)-N-((1-(4-chlorophenyl)-3-(trifluoromethyl)-1H-pyrazol-5-yl)methyl)-2-(3-fluoro-4-(methylsulphonamido)phenyl)propanamide], the inhibition at 10 µM on hVR1 [1] is 42%. In addition, the Ki was 31.7 nM at hVR1 [2] and 42.7 nM in experiment [3].

For the compound `C[C@H](C(=O)NCc1cc(C(C)(C)C)nn1-c1ccc(Cl)cc1)c1ccc(NS(C)(=O)=O)c(F)c1` [Example 15, (S)-N-((3-tert-butyl-1-(4-chlorophenyl)-1H-pyrazol-5-yl)methyl)-2-(3-fluoro-4-(methylsulphonamido)phenyl)propanamide], at hVR1 [1] (read-out: IC50 (human being) hVR1 pH column: inhibition (as a percentage) @ 5 μM, inhibition determined at 5 μM), the inhibition at 5 µM amounted to 14%. The Ki stood at 2.1 nM at hVR1 [2] and 2.5 nM in experiment [3].

`COc1ccc(-n2nc(C(C)(C)C)cc2CNC(=O)C(C)c2ccc(NS(C)(=O)=O)c(F)c2)cc1` (centres unmarked) [Example 20, N-((3-tert-butyl-1-(4-methoxyphenyl)-1H-pyrazol-5-yl)methyl)-2-(3-fluoro-4-(methylsulphonamido)phenyl)propanamide]: the “IC50 … (NE / AG)” value on hVR1 [1] is reported as “NE”. For the same compound, at hVR1 [2] (CHO-K1, read-out: Ki (human being) inhibition (as a percentage) @ 1 μM, capsaicin, inhibition determined at 1 μM), the inhibition at 1 µM was found to be 55%. This compound returned a Ki in experiment [3] of 2830 nM.

Turning to `C[C@H](C(=O)NCc1cc(C(C)(C)C)nn1C)c1ccc(NS(C)(=O)=O)c(F)c1` [Example 4, (S)-N-((3-tert-butyl-1-methyl-1H-pyrazol-5-yl)methyl)-2-(3-fluoro-4-(methylsulphonamido)phenyl)propanamide], the “IC50 … (NE / AG)” value on hVR1 [1] is recorded as “NE”. Moreover, the inhibition at 5 µM on hVR1 [2] is 9%; in experiment [3], 20%.

Turning to `CC(C(=O)NCc1cc(C(C)(C)C)nn1C)c1ccc(NS(C)(=O)=O)c(F)c1` (centres unmarked) [Example 3, N-((3-tert-butyl-1-methyl-1H-pyrazol-5-yl)methyl)-2-(3-fluoro-4-(methylsulphonamido)phenyl)propanamide], the “IC50 … (NE / AG)” value on hVR1 [1] is given as “NE”. Further, the inhibition at 5 µM at hVR1 [2] worked out at 12%; in experiment [3], 14%.

Regarding `C[C@H](C(=O)NCc1cc(C(C)(C)C)n[nH]1)c1ccc(NS(C)(=O)=O)c(F)c1` [Example 2, (S)-N-((3-tert-butyl-1H-pyrazol-5-yl)methyl)-2-(3-fluoro-4-(methylsulphonamido)phenyl)propanamide], the “IC50 … (NE / AG)” value at hVR1 [1] is on record as “NE”. Besides, the “Ki (human being) Cap: result in words (NE / AG)” value on hVR1 [2] (capsaicin) is “NE”. For the same compound, in experiment [3], the inhibition at 5 µM amounted to 25%.
